Laboratory results as given in patent US20020058636A1, “RIBOZYMES TARGETING THE RETROVIRAL PACKAGING SEQUENCE EXPRESSION CONSTRUCTS AND RECOMBINANT RETROVIRUSES CONTAINING SUCH CONSTRUCTS” (priority 1994, published 2002).

Key:
Type in all cases: cell-based
[1] = tested on: HIV-1 (SF2); test: Syncitia formation of infected SupT1 cells over days post infection
Protocol: The anti-HIV packaging site construct, pSV-Rz-HIV-Psi, was electroporated into Sup T-1 cells, a human T lymphoma cell line. Exponentially growing cells were harvested and the number of viable cells counted by dye exclusion. The cells were washed with PBS and resuspended at a density of 1×10^7 viable cells/ml in RPMI media without FCS but containing 10 m,M dextrose and 0.1 mM dithiothreitol. 0.4 ml of the cell suspension and 10 μg of pSV-Rz-HIV-Psi plasmid DNA were used per electroporation in 0.4 cm cuvettes (Bio-Rad) . The cell and DNA mixture was subjected to a single pulse of 960 μF, 200V from a Gene Pulser (Bio-Rad) . After shocking, the cuvette was incubated for 10 minutes at room temperature, and the cells were then transferred to 10 ml of RPMI media with 10% FCS and placed into an incubator (5%CO2, 37° C.). At 48 hours post electroporation, the cells were selected in medium supplemented with 800 μg/ml G418. 9-12 days later, positive colonies were isolated and grown as clonal isolates to be used in a HIV protection assay.
(§1) Two assays, p24 antigen and syncytium formation, were performed to assess efficacy of the anti-HIV Psi ribozyme construct in cell culture. HIV-1 p24 antigen assay is an enzyme immunoassay, which uses a murine monoclonal antibody against HIV core antigen coated onto microwell strips. The HIV-1 syncytium assay is based on the observation that HIV-1 interacts with target T lymphocytes by causing fusion resulting in the formation of syncytia, large cells containing many nuclei. The clonal ribozyme-construct expressing cells, plus controls, were infected with HIV-1 (SF2) at m.o.i. of 0.1 to 1. After 2 hours, the cells were washed, and 10 ml of fresh media was added. Every 3-4 days, the number of both syncitia and viable cells were counted. […] In addition, the presence of the ribozyme caused a delay in syncitia formation (Table 4).

[2] = tested on: HIV-1 IIIB; test: BM12 antibody and ribozyme expression, p24 production in SupT1 cells; settings: BM12 Concentration 0.00 μg/ml
Protocol: The anti-HIV-1 antibody BM12 has been tested for its potential combined effect with ribozymes on HIV-1 replication. Rz2 (a single ribozyme targeted to the HIV-1 tat gene) and SV2neo vector expressing SupT1 cells were infected with HIV-1 IIIB virus for 2 hr and then washed. The cells were resuspended in BM12 antibody containing medium (0, 0.5, 5, 50 μg BM12 antibody/ml) and incubated at 37° C., 5% CO2. Samples of medium were taken at days 3, 5, 9, 12 and 15 for p24 assays. Cytopathic effect (CPE) determined by syncytia formation was monitored at days 3, 6, 9, 12. […] The following Table 6 summarizes the p24 data at day 15.

[3] = tested on: HIV-1 (SF2); test: HIV-1 p24 antigen assay in ribozyme-expressing Sup T-1 cells
Protocol: Vector, is the control construct. Rz-2 and Rz-M are two ribozyme constructs targeted to the tat gene of HIV. Rz-M is a multi-ribozyme containing several ribozymes targeted to different sites within tat. This includes the site targeted by Rz-2.
as §1
In another experimental protocol, the cells were pelleted, and an aliquot of the supernatant taken for p24 assay. In this experiment there was an inhibition of p24 levels to day 22 post challenge.

Sequence	Syncitia formation ([1]; 6 Days Post Infection)	Syncitia formation ([1]; 7 Days Post Infection)	Syncitia formation ([1]; 8 Days Post Infection)	Syncitia formation ([1]; 9 Days Post Infection)	Syncitia formation ([1]; 10 Days Post Infection)	Syncitia formation ([1]; 11 Days Post Infection)	p24 Production at Day 15 [2] [ng/mL]	inhibition of HIV-1 replication [3]
GTCAAAAATTGGCGCTGATGAGTCCGTGAGGACGAAACTCACCAGTCGCCG (chemistry not given here) [Rz-Psi, single anti-HIV Psi packaging site ribozyme cloned into neo r gene of pSV2neo]	− (−, no syncytia)	− (−, no syncytia)	− (−, no syncytia)	− (−, no syncytia)	− (−, no syncytia)	− (−, no syncytia)		
TTAGGATCCTGATGAGTCCGTGAGGACGAAACTGGCTC (chemistry not given here) [Rz-2, single ribozyme targeted to the HIV-1 tat gene]							1.90	effective in inhibiting HIV-1 replication
